Values of other authors, collected in publication PMC7395068, “The evolution of strategies to minimise the risk of human drug-induced liver injury (DILI) in drug discovery and development” (Archives of Toxicology, 2020).
Read-outs that look alike come from different tables or passages of the source.

Columns and labels:
[1] = cited from earlier work
human hepatocytes = conditions: cited from earlier work
[2] = cited from earlier work; remark: listed apart in the source
PHH spheroids = conditions: In vitro Assay; ref Vorrink 2018; cited from earlier work
HepG2 cells [3] = conditions: In vitro Assay; ref Persson 2013; cited from earlier work
HepG2 cells [4] = conditions: cited from earlier work
[5] = system: THLE or HepG2 cells, isolated mitochondria, BSEP; conditions: In vitro Assay; ref Aleo 2019; cited from earlier work
[6] = system: primary human hepatocytes, NIH3T3 fibroblasts, BSEP, CYP3A4; conditions: cited from earlier work
[7] = system: isolated mouse liver mitochondria; conditions: In vitro Assay; ref Porceddu 2012; cited from earlier work
[8] = system: THLE-Null and THLE-3A4 cells; conditions: In vitro Assay; ref Gustafsson 2014; cited from earlier work
[9] = In vitro Assay, ref O'Brien 2006

| Structure (SMILES) | In vivo DILI ([1]; ref Vorrink 2018) | In vivo DILI ([1]; ref Xu 2008) | Structural based (HCI) (human hepatocytes; In vitro Assay, ref Xu 2008) | DILI +VE (5-8), DILI -VE (-4) ([2]; ref Chen 2016) | DILI severity category ([2]; ref Chen 2016) | hLiMTs ATP <20 x Cmax (PHH spheroids) | further results |
| --- | --- | --- | --- | --- | --- | --- | --- |
| Nc1cc(-c2ccncc2)c[nH]c1=O [amrinone] | +VE | +VE | -VE | -VE | Ambiguous DILI-concern | -VE |  |
| CN(C)CCC(c1ccc(Br)cc1)c1ccccn1 (stereo not drawn) [brompheniramine] |  |  | -VE |  |  | -VE |  |
| NNCCc1ccccc1 [phenelzine] | -VE | -VE | -VE | +VE | vLess-DILI-Concern | -VE | In vivo DILI ([1]; […]): +VE |
| Cc1cc(C2CCCCC2)n(O)c(=O)c1 [ciclopirox] | -VE | -VE | -VE |  |  | -VE |  |
| NCCCC[C@H](N[C@@H](CCc1ccccc1)C(=O)O)C(=O)N1CCC[C@H]1C(=O)O [lisinopril] |  |  | -VE |  |  | +VE (IC20 < 20 × Cmax.tot cut-off) |  |
| O=C(c1ccc(OCCN2CCCCC2)cc1)c1c(-c2ccc(O)cc2)sc2cc(O)ccc12 [raloxifene] | -VE | -VE | -VE | -VE | vNo-DILI-Concern | -VE | In vivo DILI ([1]; […]): -VE |
| Cc1nc2n(c(=O)c1CCN1CCC(c3noc4cc(F)ccc34)CC1)CCCC2 [risperidone] | +VE | +VE | -VE |  |  | -VE | Cluser analysis (HepG2 cells [3]): +VE; Structural based (HCI) (HepG2 cells [3]): -VE; In vivo DILI ([1]; ref Persson 2013): +VE |
| O=C(O)c1cc(/N=N/c2ccc(S(=O)(=O)Nc3ccccn3)cc2)ccc1O [sulfasalazine] |  |  | +VE |  |  | +VE (IC20 < 20 × Cmax.tot cut-off) |  |
| CC(C)COCC(CN(Cc1ccccc1)c1ccccc1)N1CCCC1 (stereo not drawn) [bepridil] | +VE | +VE | +VE |  |  | +VE (IC20 < 20 × Cmax.tot cut-off) |  |
| Cn1nnc2c(C(N)=O)ncn2c1=O [temozolomide] | -VE | -VE | -VE | +VE | vLess-DILI-Concern | -VE | In vivo DILI ([1]; ref O'Brien 2006): -VE; Structural based (HCI) (HepG2 cells [4]; [9]): +VE (lowest HCI endpoint IC50 (or in the absence of dose–response < 100 µM) < 30 × total human plasma exposure levels (Cmax.tot)) |
| COCCOC(=O)C1=C(C)NC(C)=C(C(=O)OC(C)C)C1c1cccc([N+](=O)[O-])c1 (stereo not drawn) [nimodipine] |  |  | +VE |  |  | +VE (IC20 < 20 × Cmax.tot cut-off) |  |
| CCc1c(C)[nH]c2c1C(=O)C(CN1CCOCC1)CC2 (stereo not drawn) [molindone] | +VE | +VE | -VE |  |  | -VE |  |
| CC[C@@H]1C(=O)OC[C@@H]1Cc1cncn1C [pilocarpine] | -VE | -VE | -VE | -VE | Ambiguous DILI-concern | -VE |  |
| CC(C)NCC(O)COc1cccc2[nH]ccc12 (stereo not drawn) [pindolol] | -VE | -VE |  | -VE | vNo-DILI-Concern | -VE |  |
| C[C@]12CCC(=O)C=C1CC[C@@H]1[C@@H]2[C@@H](O)C[C@@]2(C)[C@H]1CC[C@]2(O)C(=O)CO [hydrocortisone] |  |  | -VE |  |  | -VE | In vivo DILI ([1]; in vivo): -VE; DILI +VE (5-8), DILI -VE (-4) ([2]; in vivo): -VE; DILI severity category ([2]; in vivo): vNo-DILI-Concern |
| Nc1ccc(/N=N/c2ccccc2)c(N)n1 [phenazopyridine] | +VE | +VE | -VE |  |  | -VE | Partition Hybrid HRM Score [5]: +VE; Ro2 Hybrid HRM Score [5]: -VE; In vivo DILI ([1]; ref Aleo 2019): -VE |
| C[C@H](CCC(=O)O)[C@H]1CC[C@H]2[C@@H]3[C@H](O)C[C@@H]4C[C@H](O)CC[C@]4(C)[C@H]3CC[C@]12C [chenodiol] | +VE | +VE | +VE | -VE | Ambiguous DILI-concern | +VE (IC20 < 20 × Cmax.tot cut-off) |  |

| Structure (SMILES) | In vivo DILI ([1]; ref Vorrink 2018) | In vivo DILI ([1]; ref Xu 2008) | Structural based (HCI) (human hepatocytes; In vitro Assay, ref Xu 2008) | DILI +VE (5-8), DILI -VE (-4) ([2]; ref Chen 2016) | DILI severity category ([2]; ref Chen 2016) | hLiMTs ATP <20 x Cmax (PHH spheroids) | further results |
| --- | --- | --- | --- | --- | --- | --- | --- |
| CCC1(c2ccc(N)cc2)CCC(=O)NC1=O (stereo not drawn) [aminoglutethimide] | -VE | -VE | -VE |  |  | -VE |  |
| CN(C)C(=O)Oc1cc(OC(=O)N(C)C)cc(C(O)CNC(C)(C)C)c1 (stereo not drawn) [bambuterol] | -VE | -VE | -VE |  |  | -VE | Cluser analysis (HepG2 cells [3]): -VE; Structural based (HCI) (HepG2 cells [3]): -VE; In vivo DILI ([1]; ref O'Brien 2006): -VE; In vivo DILI ([1]; ref Persson 2013): -VE; Structural based (HCI) (HepG2 cells [4]; [9]): +VE |
| COC1=CC(=O)C[C@@H](C)[C@]12Oc1c(Cl)c(OC)cc(OC)c1C2=O [griseofulvin] |  |  | -VE |  |  | -VE | Partition Hybrid HRM Score [5]: +VE; Ro2 Hybrid HRM Score [5]: +VE |
| N[C@@H](Cc1ccc(O)c(O)c1)C(=O)O [levodopa] |  |  | -VE |  |  | -VE |  |
| COc1cc(NC(C)CCCN)c2ncccc2c1 (stereo not drawn) [primaquine] | -VE | -VE | -VE | -VE | vNo-DILI-Concern | -VE | Partition Hybrid HRM Score [5]: -VE; Ro2 Hybrid HRM Score [5]: -VE; hBSEP inhibition [6]: -VE; In vivo DILI ([1]; ref Aleo 2019): -VE; In vivo DILI ([1]; ref O'Brien 2006): -VE; In vivo DILI ([1]; ref Schadt 2015): -VE; Structural based (HCI) (HepG2 cells [4]; [9]): +VE |
| CCN(CC)C(=O)N1CCN(C)CC1 [diethylcarbamazine] |  |  | -VE |  |  | -VE |  |
| Clc1ccc(COC(Cn2ccnc2)c2ccc(Cl)cc2Cl)c(Cl)c1 (stereo not drawn) [miconazole] |  |  | -VE |  |  | -VE |  |
| CC(C)OC(=O)C(C)(C)Oc1ccc(C(=O)c2ccc(Cl)cc2)cc1 [fenofibrate] |  |  | -VE |  |  | +VE (IC20 < 20 × Cmax.tot cut-off) | Partition Hybrid HRM Score [5]: +VE; Ro2 Hybrid HRM Score [5]: +VE; Cluser analysis (HepG2 cells [3]): -VE |
| O=c1ccc2ccccc2o1 [coumarin] | +VE |  |  |  |  | +VE (IC20 < 20 × Cmax.tot cut-off) | in vitro data EC2<=1x Cmax [7]: +VE; in vitro data EC20<=2uM [7]: +VE; In vivo DILI ([1]; […]): +VE; In vivo DILI ([1]; ref Porceddu 2012): +VE |
| CCCSc1ccc2nc(NC(=O)OC)[nH]c2c1 [albendazole] | +VE | +VE |  | +VE | vMost-DILI-Concern | -VE | Structural based (HCI) (human hepatocytes): +VE |
| Cc1cc2c(s1)Nc1ccccc1N=C2N1CCN(C)CC1 [olanzapine] |  |  |  |  |  |  | THLE-Null [8]: -VE; In vivo DILI ([1]; […]): -VE; In vivo DILI ([1]; ref Gustafsson 2014): +VE; In vivo DILI ([1]; ref Schadt 2015): -VE; In vivo DILI ([1]; ref Williams 2019): +VE |
| COc1ccc([C@@H]2Sc3ccccc3N(CCN(C)C)C(=O)[C@@H]2OC(C)=O)cc1 [diltiazem] |  |  | -VE |  |  | -VE |  |
| C=C[C@H]1C[N@@]2CC[C@H]1C[C@@H]2[C@@H](O)c1ccnc2ccc(OC)cc12 [quinidine] |  |  |  |  |  | +VE (IC20 < 20 × Cmax.tot cut-off) | Cellular toxicity (3T3 cells) [6]: +VE; GSH adduct HML [6]: -VE; TDI CYP3A4 [6]: -VE; hBSEP inhibition [6]: -VE; Structural based (HCI) (HepG2 cells [4]): +VE; DILI +VE (5-8), DILI -VE (-4) ([2]; in vivo): +VE; DILI severity category ([2]; in vivo): vLess-DILI-Concern |
| CC(CCc1ccc(O)cc1)NCCc1ccc(O)c(O)c1 (stereo not drawn) [dobutamine] | -VE | -VE | -VE | -VE | vNo-DILI-Concern | -VE |  |
| CCOC(=O)[C@H](CCc1ccccc1)N[C@@H](C)C(=O)N1Cc2ccccc2C[C@H]1C(=O)O [quinapril] | +VE | +VE | -VE | +VE | vLess-DILI-Concern | -VE |  |
| Clc1ccc2c(c1)C(N1CCNCC1)=Nc1ccccc1O2 [amoxapine] | -VE | -VE | -VE | -VE | Ambiguous DILI-concern | -VE |  |
| COC(=O)C1=C(C)NC(C)=C(C(=O)OCC(C)C)C1c1ccccc1[N+](=O)[O-] (stereo not drawn) [nisoldipine] | -VE | -VE | -VE | -VE | Ambiguous DILI-concern | -VE | In vivo DILI ([1]; […]): -VE |
